Starred links: 1 amine or outer side, 2 acyl side, 3 side chain; linkers in the order of their positions; H or OH if unused. Positions of bridges follow the written chain, without caps; N, C: chain ends. Residues, ends and D or L forms follow the SMILES beside them. X1 = O=C(C[*:2])NCCNC(=O)c1ccc(C2=N[C@H](C(=O)[*:1])CS2)cc1
How the values were obtained:
Jurkat cells = test: Cell viability assay (CellTiter-Glo), Jurkat; assay type: cell-based; conditions: Homo sapiens, 48 h treatment, CellTiter-Glo
Method: (§1) The cell lines Jurkat (TIB-152), El4 (TIB-39), Daudi (ccl-213), RS4:11 (crl-1873), A549 (ccl-185), HepG2 (hb-8065) and PANC-1 (crl-1469) were purchased from ATCC (American Type Culture Collection), and MGC-803 (C6582) was purchased from Beyotime (https://www.beyotime.com/product/C6582.htm). […] Daudi and RS4:11 cells were cultured in RPMI-1640 medium (HyClone, SH30809.01) and 10% FBS (Gibco, 10099-141), whereas HepG2, MGC-803 and PANC-1 cells were cultured in MDEM (HyClone, SH30243.01). Cells were maintained at 37 °C under a humidified, 5% (v/v) CO2-containing atmosphere.
(§2) Cell viability was measured using CellTiter-Glo® 2.0 Reagent (Promega, G9242). […] After different inhibitors were added into serum-free medium and cultured for 4 h (RS4:11 for 6 h), FBS were supplemented to 10% and then incubated totally for 24 h or 48 h. Finally, the IC50 values were calculated based on measurements using a microplate reader (Thermo, Varioskan LUX). Statistical analysis was performed using software GraphPad Prism 7.0.

Daudi cells = test: Cell viability assay (CellTiter-Glo), Daudi; assay type: cell-based; conditions: Homo sapiens, Daudi, 48 h, 48 h treatment, CellTiter-Glo
Method: as §1, §2

El4 cells = test: Cell viability assay (CellTiter-Glo), El4; assay type: cell-based; conditions: Mus musculus, 48 h treatment, NO = no inhibition detected
Method: as §1, §2

RS4:11 cells = test: Cell viability assay (CellTiter-Glo), RS4:11; assay type: cell-based; conditions: Homo sapiens, RS4-11; 48 h treatment, CellTiter-Glo; small-molecule inhibitors, cells marked (nM)
Outline: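 Compounds added in serum-free medium for 4 h (RS4:11: 6 h), then FBS brought to 10% and incubation continued to 24 h or 48 h total at 37 °C, 5% CO2. Viability by CellTiter-Glo 2.0 luminescence; IC50 calculated.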

[1] = parameters: method as in PMID 23410971; conditions: attributed to binding to BCL-XL; cited from earlier work
BCL-XL = molecular target: T1, BCL-XL (Homo sapiens, UniProt Q07817, DEL27-81); test: SPR binding assay, BCL-XL; conditions: affinity fitting, mean ± SD of three independent experiments, 25 °C
T1 construct: human BCL-XL (residues 1–210, with 27–81 and 210–233 removed); vector-borne tag of pET-22b (Ni-NTA purification implies a His tag); made in house; host or cells: E. coli BL21 (DE3)
Excerpt: (§3) The DNA fragments encoding human BCL-XL ([…], with […] removed), BCL-w (residues 6–152), MCL-1 (residues 152–308) and BFL-1 (residues 1–151) as previously reported[18] were cloned into a pET-22b vector (Invitrogen), respectively. A chimeric human BCL-2 (including residues 1–50 and 92–207) was constructed, by removing the internal long loop (residues 51–91) and replacing its residues 35–50 with residues 33–48 of BCL-XL to solubilize the protein[14], and then it was cloned into a pET28a-Sumo vector (Invitrogen). All BCL-2 mutants (G101V, F104L, Y103D, D111A) were generated by mutagenic PCR, according to the QuikChange (Stratagene) protocol.
(§4) SPR assays were performed using a Biacore T200 instrument in running buffer consisting 10 mM PBS, 50 μM EDTA and 0.05% Tween-20 at 25 °C. Biotinylated proteins were immobilized on a CAP sensor chip (Cytiva, 28920234). […] The binding affinities were quantified by the Biacore evaluation software using 1:1 binding model. The reproducibility of the assays was confirmed by performing replicate determinations.

BCL-2-D111A = molecular target: T2, BCL-2-D111A (Homo sapiens, UniProt P10415, D111A/DEL35-91/INS34DVEENRTEAPEGTESE); test: SPR binding assay, BCL-2 D111A mutant
T2 construct: A chimeric human BCL-2 (including residues 1–50 and 92–207) was constructed; SUMO (pET28a-Sumo vector); made in house; host or cells: E. coli BL21 (DE3)

BCL-2-G101V = molecular target: T3, BCL-2-G101V (Homo sapiens, UniProt P10415, DEL35-91/G101V/INS34DVEENRTEAPEGTESE); test: SPR binding assay, BCL-2 G101V mutant; conditions: affinity fitting, mean ± SD of three independent experiments
T3 construct: A chimeric human BCL-2 (including residues 1–50 and 92–207) was constructed; SUMO (pET28a-Sumo vector); made in house; host or cells: E. coli BL21 (DE3)
Excerpt: as §3, §4

BCL-2-D103Y = molecular target: T4, BCL-2-D103Y (Homo sapiens, UniProt P10415, D103Y/DEL35-91/INS34DVEENRTEAPEGTESE); test: SPR binding assay, BCL-2 D103Y mutant; conditions: affinity fitting, mean ± SD of three independent experiments
T4 construct: A chimeric human BCL-2 (including residues 1–50 and 92–207) was constructed; SUMO (pET28a-Sumo vector); made in house; host or cells: E. coli BL21 (DE3)
Excerpt: as §3, §4

BCL-2-F104L = molecular target: T5, BCL-2-F104L (Homo sapiens, UniProt P10415, DEL35-91/F104L/INS34DVEENRTEAPEGTESE); test: SPR binding assay, BCL-2 F104L mutant; conditions: affinity fitting, mean ± SD of three independent experiments
T5 construct: A chimeric human BCL-2 (including residues 1–50 and 92–207) was constructed; SUMO (pET28a-Sumo vector); made in house; host or cells: E. coli BL21 (DE3)
Excerpt: as §3, §4

BCL-w = molecular target: T6, BCL-w (Homo sapiens, UniProt Q92843); test: SPR binding assay, BCL-w; conditions: affinity fitting, mean ± SD of three independent experiments
T6 construct: BCL-w (residues 6–152); vector-borne tag of pET-22b (Ni-NTA purification implies a His tag); made in house; host or cells: E. coli BL21 (DE3)
Excerpt: as §3, §4

MCL-1 = MCL-1 (Homo sapiens, UniProt Q07820); test: SPR binding assay, MCL-1; conditions: NB = no binding
Excerpt: as §3, §4

BFL-1 = molecular target: T7, BFL-1 (Homo sapiens, UniProt Q16548); test: SPR binding assay, BFL-1; conditions: NB = no binding
T7 construct: BFL-1 (residues 1–151); vector-borne tag of pET-22b (Ni-NTA purification implies a His tag); made in house; host or cells: E. coli BL21 (DE3)
T7 sequence (Q16548 1-151): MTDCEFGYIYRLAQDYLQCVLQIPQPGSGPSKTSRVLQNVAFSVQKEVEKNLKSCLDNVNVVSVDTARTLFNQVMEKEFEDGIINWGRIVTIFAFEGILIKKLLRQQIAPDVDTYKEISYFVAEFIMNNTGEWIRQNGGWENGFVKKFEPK
Excerpt: as §3, §4

T6 sequence (Q92843 6-152): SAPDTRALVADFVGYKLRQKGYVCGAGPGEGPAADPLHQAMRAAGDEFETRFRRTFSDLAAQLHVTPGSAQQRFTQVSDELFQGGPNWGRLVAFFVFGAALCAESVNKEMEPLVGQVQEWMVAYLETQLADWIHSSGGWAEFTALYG
MCL-1, sequence (Q07820 152-308): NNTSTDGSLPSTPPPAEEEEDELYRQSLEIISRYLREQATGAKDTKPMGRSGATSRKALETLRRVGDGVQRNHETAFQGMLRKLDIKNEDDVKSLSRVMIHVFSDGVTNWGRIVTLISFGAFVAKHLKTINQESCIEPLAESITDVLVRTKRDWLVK

| Structure (SMILES) | IC50 (Jurkat cells) [µM] | IC50 (Daudi cells) [µM] | IC50 (El4 cells) [µM] | IC50 (RS4:11 cells) [nM] | Thrombocytopenia [1] | Kd (BCL-XL) [µM] | Kd (BCL-2-D111A) [µM] | Kd (BCL-2-G101V) [µM] | Kd (BCL-2-D103Y) [µM] | Kd (BCL-2-F104L) [µM] | Kd (BCL-w) [µM] | Kd (MCL-1) [µM] | Kd (BFL-1) [µM] |
| --- | --- | --- | --- | --- | --- | --- | --- | --- | --- | --- | --- | --- | --- |
| CC1(C)CCC(c2ccc(Cl)cc2)=C(CN2CCN(c3ccc(C(=O)NS(=O)(=O)c4ccc(N[C@H](CCN5CCOCC5)CSc5ccccc5)c(S(=O)(=O)C(F)(F)F)c4)cc3)CC2)C1 [ABT-263, navitoclax] | 8.5 ± 0.5 | 13.5 ± 1.5 | > 100 | 0.4 ± 0.1 | dose-dependent thrombocytopenia |  |  |  |  |  |  |  |  |
| C[C@@H]1NC(=O)[C@@H]2CCCN2C(=O)[C@@H]2CSC(=N2)c2ccc(cc2)C(=O)NCCNC(=O)CSC[C@@H](C(N)=O)NC(=O)[C@H](CCC(=O)O)NC(=O)[C@H](Cc2ccc(O)cc2)NC(=O)[C@H](CC(=O)O)NC(=O)[C@H](Cc2c[nH]c3ccccc23)NC(=O)CNC(=O)[C@H](Cc2ccc(O)cc2)NC(=O)[C@H](CCCNC(=N)N)NC1=O [cp1] (PARYGWDYEC-NH2; linker N-10 via X1) |  |  |  |  |  | > 12.1 | 5.34 ± 1 | 1 ± 0.13 | 0.36 ± 0.03 | 1.62 ± 0.36 | 1.98 ± 0.39 | > 12.8 | > 12.8 |

Source: article PMC10874388, “Cyclic peptides discriminate BCL-2 and its clinical mutants from BCL-XL by engaging a single-residue discrepancy” (Nature Communications, 2024)
